17 compounds from patent US20130244929A1 (priority 2010, published 2013) can be followed below.

For data set [1] the following is noted: from COC(=O)[C@H](Cc1ccc(OC)c(B2OC(C)(C)C(C)(C)O2)c1)NC(=O)[C@H](C)NC(=O)[C@@H](NC(=O)OC(C)(C)C)c1ccc(OC)c(I)c1; cc_pd bond; PdCl2(dppf); acetonitrile; 70.3 mM; 44.0 °C; 3.0 h.
Data set [2] has as its system MB 5393 (COL), a methicillin-resistant S. aureus strain. Description: Determination of minimum and synergistic inhibitory concentration. It is filed as cell-based. Particulars: for SIC: presence of imipenem (4 μg/mL); for MIC: Staphylococcus aureus. In a few lines: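 Broth microdilution: two-fold compound dilutions (final 64 to 0.0313 μg/mL) tested with and without subinhibitory imipenem (4 μg/mL) against MRSA COL at ~5×10^5 CFU/mL, 37°C, 22-24 hr stationary. MIC is lowest concentration preventing visible growth without imipenem; SIC same with imipenem.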

The target of data set [3] is T1, SpsB (Staphylococcus aureus, UniProt P0A070).
T1 construct: using a bacterial membrane fraction as a source of SpsB; from tissue
T1 sequence (P0A070 1-191): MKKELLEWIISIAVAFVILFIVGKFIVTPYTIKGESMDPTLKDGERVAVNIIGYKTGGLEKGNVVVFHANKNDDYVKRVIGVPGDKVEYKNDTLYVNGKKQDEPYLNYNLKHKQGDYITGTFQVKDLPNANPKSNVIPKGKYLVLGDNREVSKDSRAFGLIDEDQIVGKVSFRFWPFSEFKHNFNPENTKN
Description: Inhibition of SpsB enzyme activity (fluorescence-based assay, bacterial membrane fraction). Format: biochemical. The method in brief: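 Membrane fraction from bacteria supplied SpsB (0.6 mg/mL final protein), added last to start reactions with 20 μM lipopeptide substrate decanoyl-K(DABCYL)-TPTAKA↓ASKKD-D(EDANS)-NH2 (Km≈5 μM). Cleavage was followed as rising fluorescence, excitation 340/emission 460 nm.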

Setting [4] is: MRSA COL, absence of imipenem, 22 hours, read-out: MIC.

Each structure is given as a SMILES string. Like-named read-outs stand apart in the source and are kept apart here.

In data set [1], `COC(=O)[C@@H]1Cc2ccc(OC)c(c2)-c2cc(ccc2OC)[C@H](NC(=O)OC(C)(C)C)C(=O)N[C@@H](C)C(=O)N1` displayed a ring closure, yield of all isomers of 20%.

As a reminder, the MIC is the lowest concentration found to suppress growth. In general, IC50 refers to the concentration that inhibits the measured activity by half. Read a low IC50 as greater potency. Turning to `CCCCc1ccc(-c2ccc(C(=O)NCCC(=O)N[C@@H](CCCCN)C(=O)N(C)[C@@H]3C(=O)N[C@@H](C)C(=O)N[C@H](C(=O)O)Cc4ccc(O)c(c4)-c4cc3ccc4O)cc2)cc1` [EXAMPLE 51], the SIC entry in data set [2] (MRSA COL, 22 hours) is given as “G (G: SIC <0.0625)”. For the same compound, the MIC in data set [2] (MRSA, 22 h) was under 1 µg/mL. In data set [3], this compound showed a half-inhibitory concentration (IC50) of under 10 nM.

As to `CCCCCCCCCc1ccc(-c2ccc(C(=O)NCCC(=O)N[C@@H](CCCCN)C(=O)N(C)[C@@H]3C(=O)N[C@@H](C)C(=O)N[C@H](C(=O)O)Cc4ccc(O)c(c4)-c4cc3ccc4O)c3ccccc23)cc1` [EXAMPLE 52], in data set [2] (MRSA COL, 22 hours), the SIC result is recorded as “G (G: SIC <0.0625)”. For the same compound, in data set [2] (MRSA, 22 h), the MIC was in the range of 1 to 8 µg/mL. The compound further returned an IC50 in data set [3] of under 10 nM.

Regarding `CCCc1ccc(-c2ccc(C(=O)NCCC(=O)N3CC(CCN)C[C@H]3C(=O)N(C)[C@@H]3C(=O)N[C@@H](C)C(=O)N[C@H](C(=O)O)Cc4ccc(O)c(c4)-c4cc3ccc4O)cc2)cc1` (stereo partly shown) [EXAMPLE 53], in data set [2] (MRSA COL, 22 hours), the SIC entry was “G (G: SIC <0.0625)”. In addition, the MIC in data set [2] (MRSA, 22 h) is under 1 µg/mL. The IC50 in data set [3] was under 10 nM.

Take `CCCCCCCCCc1ccc(-c2ccc(C(=O)NCCC(=O)N[C@@H](CCCCN)C(=O)N(C)[C@@H]3C(=O)N[C@@H](C)C(=O)N[C@H](C(=O)O)Cc4ccc(O)c(c4)-c4cc3ccc4O)cn2)cc1` [EXAMPLE 54]: the SIC result in data set [2] (MRSA COL, 22 hours) is on record as “G (G: SIC <0.0625)”. Moreover, in data set [2] (MRSA, 22 h), the MIC is under 1 µg/mL. In addition, the IC50 in data set [3] is under 10 nM.

Take `CCCc1ccc(-c2ccc(C(=O)NCCC(=O)N[C@@H](CCCN)C(=O)N(C)[C@@H]3C(=O)N[C@@H](C)C(=O)N[C@H](C(=O)O)Cc4ccc(O)c(c4)-c4cc3ccc4O)cc2)cc1` [EXAMPLE 55]: the SIC result in data set [2] (MRSA COL, 22 hours) was “H (H: SIC 0.062-1)”. Further, the MIC in data set [2] (MRSA, 22 h) was under 1 µg/mL. Besides, the IC50 in data set [3] was under 10 nM.

Take `COc1ccc2cc1-c1cc(ccc1OC)[C@H](N(C)C(=O)[C@H](CCCCN)NC(=O)CCNC(=O)c1ccc(-c3ccc(CCCCCCCCC(C)(C)O)cc3)cc1)C(=O)N[C@@H](C)C(=O)N[C@H](C(=O)O)C2` [EXAMPLE 56]: in data set [2] (MRSA COL, 22 hours), the SIC result was “H (H: SIC 0.062-1)”. For the same compound, in data set [2] (MRSA, 22 h), the MIC fell in the range of 1 to 8 µg/mL. The half-inhibitory concentration (IC50) in data set [3] was under 10 nM.

In the case of `CCCCCCCCCc1ccc(-c2ccc(C(=O)NCCC(=O)N[C@@H](CCCCN)C(=O)N(C)[C@@H]3C(=O)N[C@@H](C)C(=O)N[C@H](C(=O)O)Cc4ccc(O)c(c4)-c4cc3ccc4O)cc2C)cc1` [EXAMPLE 58], the SIC result in data set [2] (MRSA COL, 22 hours) is listed as “G (G: SIC <0.0625)”. For the same compound, the MIC in data set [2] (MRSA, 22 h) was under 1 µg/mL. Besides, the IC50 in data set [3] is under 10 nM.

With `C[C@@H]1NC(=O)[C@@H](N(C)C(=O)[C@@H]2CCCN2C(=O)CCNC(=O)c2ccc(CCCCCCCCc3ccccc3)cc2)c2ccc(O)c(c2)-c2cc(ccc2O)C[C@@H](C(=O)O)NC1=O` [EXAMPLE 59], the SIC result in data set [2] (MRSA COL, 22 hours) is “H (H: SIC 0.062-1)”. Moreover, the MIC in data set [2] (MRSA, 22 h) lay in the range of 1 to 8 µg/mL. In data set [3], this compound registered an IC50 of under 10 nM.

For the compound `CCCCCCCCCCc1ccc2cc(C(=O)NCCC(=O)N[C@@H](CCCC(=O)O)C(=O)N(C)[C@@H]3C(=O)N[C@@H](C)C(=O)N[C@H](C(=O)O)Cc4ccc(O)c(c4)-c4cc3ccc4O)ccc2c1` [EXAMPLE 60], the SIC result in data set [2] (MRSA COL, 22 hours) was “G (G: SIC <0.0625)”. The minimal inhibitory concentration (MIC) in data set [2] (setting [4]) was 1 to 8 µg/mL. The compound further came in with an IC50 in data set [3] of 10 to 50 nM.

For `CCCCCCCc1ccc2cc(C(=O)NCCC(=O)N[C@@H](CCCCN)C(=O)N(C)[C@@H]3C(=O)N[C@@H](C)C(=O)N[C@H](C(=O)O)Cc4ccc(O)c(c4)-c4cc3ccc4O)cnc2c1` [EXAMPLE 61], in data set [2] (MRSA COL, 22 hours), the SIC entry is “H (H: SIC 0.062-1)”. In addition, the MIC in data set [2] (MRSA, 22 h) is under 1 µg/mL. This compound displayed an IC50 in data set [3] of 10 to 50 nM.

On to `CCCCCCCCCCc1ccc2nc(C(=O)NCCC(=O)N[C@@H](CCCCN)C(=O)N(C)[C@@H]3C(=O)N[C@@H](C)C(=O)N[C@H](C(=O)O)Cc4ccc(O)c(c4)-c4cc3ccc4O)ccc2c1` [EXAMPLE 62], for which the SIC entry in data set [2] (MRSA COL, 22 hours) is “G (G: SIC <0.0625)”. For the same compound, in data set [2] (setting [4]), the MIC was under 1 µg/mL. Moreover, in data set [3], the 50% inhibitory concentration (IC50) was in the range of 10 to 50 nM.

As for `CCCCCCCCCc1ccc(-c2cnc(C(=O)NCCC(=O)N[C@@H](CCCCN)C(=O)N(C)[C@@H]3C(=O)N[C@@H](C)C(=O)N[C@H](C(=O)O)Cc4ccc(O)c(c4)-c4cc3ccc4O)nc2)cc1` [EXAMPLE 63], the SIC result in data set [2] (MRSA COL, 22 hours) is on record as “G (G: SIC <0.0625)”. The MIC in data set [2] (MRSA, 22 h) is under 1 µg/mL. Further, the half-inhibitory concentration (IC50) in data set [3] was in the range of 10 to 50 nM.

For `C[C@@H]1NC(=O)[C@@H](N(C)C(=O)[C@H](CCCCN)NC(=O)CCNC(=O)c2coc(CCCCCCCCc3ccccc3)n2)c2ccc(O)c(c2)-c2cc(ccc2O)C[C@@H](C(=O)O)NC1=O` [EXAMPLE 64], in data set [2] (MRSA COL, 22 hours), the SIC entry is “G (G: SIC <0.0625)”. Further, the MIC in data set [2] (MRSA, 22 h) was under 1 µg/mL. Besides, in data set [3], the IC50 lay within 10 to 50 nM.

Consider `CCCCCCCCCc1ccc(-c2cccc3c(C(=O)NCCC(=O)N[C@@H](CCCCN)C(=O)N(C)[C@@H]4C(=O)N[C@@H](C)C(=O)N[C@H](C(=O)O)Cc5ccc(O)c(c5)-c5cc4ccc5O)cnn23)cc1` [EXAMPLE 65], for which the SIC result in data set [2] (MRSA COL, 22 hours) was “G (G: SIC <0.0625)”. For the same compound, the MIC in data set [2] (MRSA, 22 h) fell in the range of 1 to 8 µg/mL. Also, the IC50 in data set [3] fell in the range of 10 to 50 nM.

With `CCCCCCCCCc1ccc(-c2ccc(C(=O)NCCC(=O)N[C@@H](CCCCN)C(=O)N(C)[C@@H]3C(=O)N[C@@H](C)C(=O)N[C@H](C(=O)O)Cc4ccc(O)c(c4)-c4cc3ccc4O)c(F)c2)cc1` [EXAMPLE 66], in data set [2] (MRSA COL, 22 hours), the SIC entry was “G (G: SIC <0.0625)”. In data set [2] (MRSA, 22 h), the MIC was under 1 µg/mL. For the same compound, the IC50 in data set [3] was in the range of 10 to 50 nM.

For `CCCCCCCCCCc1ccc2ccc(C(=O)NCCC(=O)N3CCC[C@H]3C(=O)N(C)[C@@H]3C(=O)N[C@@H](C)C(=O)N[C@H](C(=O)O)Cc4cccc(c4)-c4cc3ccc4OC)cc2c1` [EXAMPLE 67], in data set [2] (MRSA COL, 22 hours), the SIC result is recorded as “I (I: SIC >1)”. Besides, in data set [2] (setting [4]), the minimal inhibitory concentration (MIC) is over 8 µg/mL. Moreover, in data set [3], the half-inhibitory concentration (IC50) lay in the range of 10 to 50 nM.
